Columns and labels:
Assay type in all cases: cell-based
[1] = test system: human mast cell line LAD2 cells; experiment: Leukotriene production of human mast cell line LAD2 cells (Leukotriene EIA)
Procedure: The human mast cell line LAD2 cells obtained from National Institute of Health in US were subjected to passive sensitization overnight using DNP IgE (Yamasa, 1 μg/ml), washed and plated on a 96-well plate in a final cell concentration of 100,000 cells/well in the reaction solution. LAD2 cells were stimulated by lysoPS and DNP-BSA and the plate was centrifuged 20 minutes after. The leukotriene in the supernatant of the reaction solution was assayed using Leukotriene EIA Kit (Amersham).

[2] = test system: other receptor expression cells; experiment: cAMP production inhibitory activity on other receptor expression cells
[3] = test system: rat primary culture microglial cells (PMGC); experiment: Changes of intracellular calcium levels in rat primary culture microglial cells (FLIPR); settings: 0.2 to 10 μM lysoPS
Procedure: The reactivity of rat primary culture microglial cells (PMGC) with lysoPS was examined using FLIPR. PMGC was incubated in DMEM (Invitrogen) supplemented with 10% calf fetal serum (Invitrogen), unless otherwise indicated. PMGC, which was prepared from the brain of rat of one day old one day before assay, was plated on a Black walled 96-well plate (Costar) at 5.0×10^4 cells/well, and incubated overnight at 37° C. in a CO2 incubator adjusted to 5% CO2. After lysoPS was added to the PMGC, changes of intracellular calcium levels in this case were assayed using FLIPR (Molecular Device). To assay the changes of intracellular calcium levels on FLIPR, the following pretreatment was performed. First, an assay buffer was prepared to incorporate fluorescent dye Fluo-3AM (DOJIN) in the cells or wash the cells immediately before the FLIPR assay. To a solution of 20 ml of 1M HEPES (pH 7.4) (DOJIN) to 1000 ml of HBSS (Invitrogen) (hereinafter, HBSS/HEPES solution), 10 ml of the solution mixture obtained by dissolving 710 mg of Probenecid (Sigma) in 5 ml of 1N NaOH and further adding 5 ml of the HBSS/HEPES solution thereto was added. The resulting solution was used as an assay buffer. Next, 50 μg of Fluo-3AM was dissolved in 21 μl of DMSO (DOJIN) and an equal volume of 20% Pluronic acid (Molecular Device) was further mixed therewith. […]

Substance: lysophosphatidylserine [lysoPS]
- leukotriene production ([1]; 300 ng/ml DNP-BSA with 0.1 μM lysoPS added simultaneously): 382 pg/mL
- leukotriene production ([1]; 300 ng/ml DNP-BSA with 0.3 μM lysoPS added simultaneously): 529 pg/mL
- leukotriene production ([1]; 300 ng/ml DNP-BSA with 1 μM lysoPS added simultaneously): 638 pg/mL
- leukotriene production ([1]; 300 ng/ml DNP-BSA with 3 μM lysoPS added simultaneously): 750 pg/mL
- leukotriene production ([1]; 300 ng/ml DNP-BSA with 10 μM lysoPS added simultaneously): 792 pg/mL
- cAMP production inhibitory action on other receptor expression cells [2]: not noted
- increase in intracellular calcium levels [3]: responded concentration-dependently

— patent US7951548B2, “IL-13 production inhibitor” (Takeda Pharmaceutical Company Limited, priority 2005, dated 2011)
